From patent publication US20060063754A1, “Methods of treating a sleep disorder” (priority 2004, published 2006)
Like-named read-outs stand apart in the source and are kept apart here.

Legend:
[1] = molecular target: T1, human recombinant M1 muscarinic receptor expressed in CHO cells (Homo sapiens, UniProt P11229); conditions: reference compounds; read-out: Ki of reference compounds in M1 binding assay; cited from earlier work
T1 construct: purchased PerkinElmer, Inc., Wellesley, Mass; host or cells: CHO cells
T1 sequence (P11229 1-460): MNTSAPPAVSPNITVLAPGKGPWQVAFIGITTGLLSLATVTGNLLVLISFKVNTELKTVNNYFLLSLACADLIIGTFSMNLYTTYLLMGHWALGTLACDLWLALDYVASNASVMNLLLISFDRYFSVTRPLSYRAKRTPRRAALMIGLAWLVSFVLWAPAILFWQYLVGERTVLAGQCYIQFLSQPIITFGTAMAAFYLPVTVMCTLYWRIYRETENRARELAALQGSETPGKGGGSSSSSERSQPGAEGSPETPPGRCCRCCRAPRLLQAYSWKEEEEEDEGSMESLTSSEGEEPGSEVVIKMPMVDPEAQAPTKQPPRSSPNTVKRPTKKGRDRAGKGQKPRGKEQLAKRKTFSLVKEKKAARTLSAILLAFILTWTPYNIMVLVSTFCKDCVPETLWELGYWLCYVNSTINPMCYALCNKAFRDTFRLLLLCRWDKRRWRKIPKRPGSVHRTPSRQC

hERG channel = hERG channel (Homo sapiens, UniProt Q12809); test: hERG channel current block, whole cell patch clamp in HEK293 cells; assay type: cell-based; conditions: HEK293 cells expressing hERG, room temperature
Sequence of hERG channel (Q12809 whole entry): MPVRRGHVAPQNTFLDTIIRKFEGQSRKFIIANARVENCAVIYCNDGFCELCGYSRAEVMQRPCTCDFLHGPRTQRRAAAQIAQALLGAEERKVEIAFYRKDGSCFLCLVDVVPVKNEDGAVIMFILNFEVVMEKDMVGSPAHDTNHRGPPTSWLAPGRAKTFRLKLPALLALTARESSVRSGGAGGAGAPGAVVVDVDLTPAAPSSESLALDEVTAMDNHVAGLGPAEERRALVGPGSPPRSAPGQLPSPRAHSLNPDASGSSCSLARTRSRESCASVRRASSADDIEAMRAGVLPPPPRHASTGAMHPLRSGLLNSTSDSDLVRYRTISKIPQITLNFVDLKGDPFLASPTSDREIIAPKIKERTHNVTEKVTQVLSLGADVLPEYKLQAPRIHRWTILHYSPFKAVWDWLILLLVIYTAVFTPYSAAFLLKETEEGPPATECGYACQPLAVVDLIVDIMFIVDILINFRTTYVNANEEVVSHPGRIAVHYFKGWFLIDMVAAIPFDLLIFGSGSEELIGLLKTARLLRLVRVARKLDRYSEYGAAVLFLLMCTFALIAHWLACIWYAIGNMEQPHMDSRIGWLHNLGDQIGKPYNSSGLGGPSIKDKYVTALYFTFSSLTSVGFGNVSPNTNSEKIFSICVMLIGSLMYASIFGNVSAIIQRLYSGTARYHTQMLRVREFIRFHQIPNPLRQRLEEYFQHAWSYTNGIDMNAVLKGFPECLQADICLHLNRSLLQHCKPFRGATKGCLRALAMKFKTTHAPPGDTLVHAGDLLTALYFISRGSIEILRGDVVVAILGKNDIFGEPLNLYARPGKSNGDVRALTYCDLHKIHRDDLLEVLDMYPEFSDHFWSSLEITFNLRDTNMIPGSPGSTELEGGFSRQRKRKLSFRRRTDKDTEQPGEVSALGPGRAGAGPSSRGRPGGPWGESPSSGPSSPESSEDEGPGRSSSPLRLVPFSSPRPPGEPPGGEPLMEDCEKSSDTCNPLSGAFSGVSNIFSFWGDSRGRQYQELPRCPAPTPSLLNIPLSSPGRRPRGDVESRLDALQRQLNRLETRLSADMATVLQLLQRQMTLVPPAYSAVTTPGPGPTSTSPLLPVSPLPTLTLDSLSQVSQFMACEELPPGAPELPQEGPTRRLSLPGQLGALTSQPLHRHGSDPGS
Method: In the hERG assay, hERG channels are expressed in a human embryonic kidney cell line (HEK293) that lacks endogenous IKr. […] (See, Rampe 1997).
In one embodiment of the hERG assay, the positive control (i.e., reference compound) is terfenadine (Sigma, St. Louis Mo.), which has been shown, at a concentration of 60 nM, to block hERG current by approximately 75%. Test compounds are delivered in HEPES-buffered physiological saline (HB-PS)+0.1% dimethyl sulfoxide (DMSO). Each test compound is applied at a concentration of 10 μM to the HEK293 cells expressing hERG (n≧3, where n=the number of cells). Cells are exposed to the test compound for the time necessary to reach steady-state block, but not longer than 10 minutes. The positive control ([…] terfenadine) is applied to two cells (n≧2).
The hERG-exposed cells are then transferred to the recording chamber and superfused with HB-PS solution. The pipette solution for whole cell recordings includes potassium aspartate (130 mM), MgCl2 (5 mM), EGTA (5 mM), ATP (4 mM), and HEPES (10 mM) at a pH adjusted to 7.2 with KOH. Onset and steady state block of hERG current due to the test compound are measured using a pulse pattern with fixed amplitudes (depolarization: +20 mV for 2 seconds; repolarization: −50 mV for 2 seconds), repeated at 10 second intervals, from a holding potential of −80 mV. Peak tail current is measured during the 2 second step to −50 mV. A steady state is maintained for at least 30 seconds before applying the test compound or positive control compound. Peak tail currents are measured until a new steady state is achieved.
The in vitro effects of the disclosed sleep-inducing agents on the hERG (human ether-à-go-go-related gene) channel current (IKr, the rapidly activating, delayed rectifier cardiac potassium current) were determined by ChanTest (Cleveland, Ohio) according to Standard Operating Procedures of ChanTest.
All chemicals used were purchased from Sigma (St. Louis, Mo.) unless otherwise noted and were of ACS reagent grade purity or higher. […]

[2] = molecular target: T1, human recombinant M1 muscarinic receptor expressed in CHO cells; test: M1 muscarinic receptor binding assay ([3H]-scopolamine, N-methyl chloride)
[3] = molecular target: Dopamine, D1 (human recombinant) (Homo sapiens, UniProt P21728); test: Dopamine D1 binding assay
Sequence of Dopamine, D1 (human recombinant) (P21728 whole entry): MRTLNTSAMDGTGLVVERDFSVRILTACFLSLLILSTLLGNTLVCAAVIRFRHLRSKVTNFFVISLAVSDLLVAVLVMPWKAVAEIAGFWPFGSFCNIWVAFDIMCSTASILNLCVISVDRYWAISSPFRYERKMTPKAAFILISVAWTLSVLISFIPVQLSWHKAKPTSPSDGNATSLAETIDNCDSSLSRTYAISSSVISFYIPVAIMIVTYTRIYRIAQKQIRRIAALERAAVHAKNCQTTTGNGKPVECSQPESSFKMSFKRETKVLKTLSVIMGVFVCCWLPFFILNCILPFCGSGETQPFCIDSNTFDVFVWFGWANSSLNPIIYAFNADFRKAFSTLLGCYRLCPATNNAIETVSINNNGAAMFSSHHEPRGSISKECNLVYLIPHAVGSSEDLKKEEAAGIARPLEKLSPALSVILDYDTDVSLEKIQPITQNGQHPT
Method: Dopamine, D1 (human recombinant) binding assay was performed according to published procedures. See, e.g., Jarvie, et al. J. Recept Res., 13(1-4): 573-90 (1993); and Billard, et al. Life Sciences, 35(18): 1885-93 (1984), with modifications

H1 histamine receptor = molecular target: T2, H1 histamine receptor (Bos taurus, UniProt P30546); test: H1 histamine receptor competitive binding assay ([3H]pyrilamine); parameters: species or system bovine
T2 construct: the receptors were obtained from bovine cerebellar membrane tissue; from tissue; host or cells: bovine cerebellar membranes
T2 sequence (P30546 whole entry): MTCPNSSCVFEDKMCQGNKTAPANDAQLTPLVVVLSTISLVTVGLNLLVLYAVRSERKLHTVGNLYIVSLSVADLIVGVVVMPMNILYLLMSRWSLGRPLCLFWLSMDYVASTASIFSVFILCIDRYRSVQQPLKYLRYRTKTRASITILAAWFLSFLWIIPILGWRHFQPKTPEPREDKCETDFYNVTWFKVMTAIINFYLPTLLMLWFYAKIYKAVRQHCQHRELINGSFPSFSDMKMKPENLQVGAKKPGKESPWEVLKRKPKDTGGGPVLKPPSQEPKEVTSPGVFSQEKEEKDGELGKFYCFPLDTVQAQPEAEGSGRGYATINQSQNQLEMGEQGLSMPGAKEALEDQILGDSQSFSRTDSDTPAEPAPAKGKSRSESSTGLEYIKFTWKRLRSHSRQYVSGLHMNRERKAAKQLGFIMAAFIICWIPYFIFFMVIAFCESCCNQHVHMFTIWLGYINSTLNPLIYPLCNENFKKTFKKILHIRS

male Wistar rats = test: Sleep-wakefulness monitoring (SCORE-2000, EEG/EMG) in rats; assay type: in vivo, rat; conditions: oral bolus at CT-18, male Wistar rats
Method: Sleep-wakefulness, locomotor activity and body temperature are monitored in male Wistar rats treated with a test compound initially at a concentration of 10 mg/kg. Higher and lower doses are assayed for select compounds (e.g., as high as 45 mg/kg, and as low as necessary to establish a no-effect dose). Treatments are administered at CT-18, the peak of the activity dominated period (6 hours after lights-off), and produce soporific (sleep-inducing) effects characterized by increased non-REM sleep time, increased sleep continuity, but without evidence of REM sleep inhibition or rebound insomnia.
Sleep-wakefulness, locomotor activity and body temperature were monitored in vivo with certain of the disclosed sleep-inducing agents (e.g., Compounds 1 and 2) and other compounds described herein. Adult, male Wistar rats (250 g at time of surgery, Charles River Laboratories, Wilmington Mass.) were anesthetized (2% isoflourane in medical grade oxygen) and surgically prepared with a cranial implant to permit chronic electro-encephalogram (EEG) and electromyogram (EMG) recording. Body temperature and locomotor activity were monitored via a miniature transmitter (Mini-Mitter, Bend, Oreg.) surgically placed in the abdomen. The cranial implant consisted of stainless steel screws (two frontal (+3.2 AP from bregma, ±2.0 ML) and two occipital (−6.9 AP, ±5.5 ML)) for EEG recording. Two Teflon®-coated stainless steel wires were positioned under the nuchal trapezoid muscles for EMG recording. All leads were soldered to a miniature connector prior to surgery, and gas sterilized in ethylene oxide. The implant assembly was affixed to the skull with dental acrylic. A minimum of three weeks was allowed for surgical recovery.
Each rat was permanently housed in its own individual recording cage located within separate, ventilated compartments of custom-designed stainless steel cabinets. Each cage was enhanced with a filter-top riser and low-torque swivel-commutator. Food and water were available ad libitum. A 24-hr light-dark cycle (12 hours light, 12 hours dark) was maintained throughout the study. Animals were undisturbed for at least 48 hours before and after treatments.
Sleep and wakefulness were determined using “SCORE-2000™” (Hypnion, Worcester, Mass.)—an internet-based sleep-wake and physiological monitoring system. The system monitored amplified EEG (bandpass 1-30 Hz), integrated EMG (bandpass 10-100 Hz), body temperature and non-specific locomotor activity (LMA) via telemetry, and drinking activity, continuously and simultaneously. Arousal states were classified on-line as non-REM (NREM) sleep, REM sleep, wake, or theta-dominated wake every 10 seconds. Total drinking and locomotor activity counts, and body temperature were quantitated and recorded each minute, using EEG feature extraction and pattern-matching algorithms. […] The classification algorithm used individually-taught EEG-arousal-state templates, plus EMG criteria to differentiate REM sleep from theta-dominated wakefulness, plus behavior-dependent contextual rules (e.g., if the animal was drinking, it is awake). Drinking and locomotor activity intensity (LMA) were recorded every 10 seconds, while body temperature was recorded each minute. Locomotor activity was detected by a telemetry receiver (Mini-Mitter) beneath the cage. Telemetry measures (LMA and body temperature) were not part of the scoring algorithm; thus, sleep-scoring and telemetry data were independent measures.
Compounds were administered at CT-18, the peak of the activity-dominated period, sufficient time was allowed to view the time course of the treatment effect before lights-on (6 hours post-treatment). Compounds were suspended in sterile 0.25% or 0.5% methylcellulose (1-2 ml/kg). Treatments were administered orally as a bolus.
A parallel group study design was employed. […]

[4] = molecular target: T3, human recombinant M3 muscarinic receptor expressed in CHO cells (Homo sapiens, UniProt P20309); test: M3 muscarinic receptor binding assay
T3 construct: purchased PerkinElmer, Inc., Wellesley, Mass; host or cells: CHO cells
T3 sequence (P20309 whole entry): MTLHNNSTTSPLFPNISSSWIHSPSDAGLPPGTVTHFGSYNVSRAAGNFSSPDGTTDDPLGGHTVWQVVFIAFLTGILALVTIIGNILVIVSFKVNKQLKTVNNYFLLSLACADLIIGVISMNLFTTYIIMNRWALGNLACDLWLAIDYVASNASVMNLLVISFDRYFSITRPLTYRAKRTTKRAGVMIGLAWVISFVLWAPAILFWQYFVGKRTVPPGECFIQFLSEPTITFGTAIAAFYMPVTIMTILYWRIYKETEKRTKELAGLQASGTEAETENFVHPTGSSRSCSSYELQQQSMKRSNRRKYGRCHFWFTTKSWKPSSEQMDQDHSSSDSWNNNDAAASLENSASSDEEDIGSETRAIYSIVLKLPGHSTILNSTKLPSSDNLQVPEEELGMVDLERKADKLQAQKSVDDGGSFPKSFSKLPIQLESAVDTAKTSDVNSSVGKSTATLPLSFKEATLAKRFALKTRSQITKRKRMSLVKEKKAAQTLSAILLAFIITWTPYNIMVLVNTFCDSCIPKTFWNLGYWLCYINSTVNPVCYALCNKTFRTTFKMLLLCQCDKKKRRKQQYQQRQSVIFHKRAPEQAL

D2 receptor = D2 receptor (Homo sapiens, UniProt P14416); test: Dopamine D2 binding assay
Sequence of D2 receptor (P14416 whole entry): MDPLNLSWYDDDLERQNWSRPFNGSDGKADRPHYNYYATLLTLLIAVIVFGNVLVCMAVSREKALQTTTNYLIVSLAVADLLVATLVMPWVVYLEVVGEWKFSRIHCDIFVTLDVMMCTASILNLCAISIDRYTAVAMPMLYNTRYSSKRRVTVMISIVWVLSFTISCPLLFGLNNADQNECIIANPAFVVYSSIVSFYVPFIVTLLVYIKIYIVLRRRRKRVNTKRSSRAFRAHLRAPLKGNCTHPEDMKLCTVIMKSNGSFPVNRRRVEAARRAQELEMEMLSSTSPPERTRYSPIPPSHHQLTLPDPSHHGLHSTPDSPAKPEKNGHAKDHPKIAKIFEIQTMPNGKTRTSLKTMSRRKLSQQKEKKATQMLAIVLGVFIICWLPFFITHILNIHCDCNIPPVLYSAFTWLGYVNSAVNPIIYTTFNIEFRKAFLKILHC

[5] = molecular target: T4, human recombinant M2 muscarinic receptor expressed in CHO cells (Homo sapiens, UniProt P08172); test: M2 muscarinic receptor binding assay
T4 construct: purchased PerkinElmer, Inc., Wellesley, Mass; host or cells: CHO cells
T4 sequence (P08172 1-466): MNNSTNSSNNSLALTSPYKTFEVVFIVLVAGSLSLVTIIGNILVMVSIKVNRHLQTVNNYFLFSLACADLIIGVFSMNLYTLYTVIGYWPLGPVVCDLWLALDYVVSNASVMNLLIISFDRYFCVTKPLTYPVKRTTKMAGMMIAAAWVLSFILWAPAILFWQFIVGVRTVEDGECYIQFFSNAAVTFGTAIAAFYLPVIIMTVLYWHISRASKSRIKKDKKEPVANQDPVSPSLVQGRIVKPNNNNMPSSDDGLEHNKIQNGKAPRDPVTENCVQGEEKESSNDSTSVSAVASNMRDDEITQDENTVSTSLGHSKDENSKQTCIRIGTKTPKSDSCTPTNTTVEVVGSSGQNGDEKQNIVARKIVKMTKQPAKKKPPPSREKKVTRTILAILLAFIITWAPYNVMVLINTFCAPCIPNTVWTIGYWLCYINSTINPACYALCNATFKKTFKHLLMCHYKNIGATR

alpha 2 receptor = alpha 2 receptor binding assay; conditions: read-out: Ki Alpha2
Method: (§1) Binding assays were performed using Compound 1 and 2 in competitive binding assays with known standards for the H1 histamine receptor, and the M1, M2, and M3 muscarinic receptors, alpha 1 and alpha 2 receptors, and D1 and D2 receptors.

alpha 1 receptor = alpha 1 receptor binding assay; conditions: read-out: Ki Alpha1
Method: as §1

Ki [2] [µM]	Ki [3] [µM]	Ki (H1 histamine receptor) [µM]	Ki [4] [µM]	Ki (D2 receptor) [µM]	Ki [5] [µM]	Ki (alpha 2 receptor) [µM]	Ki (alpha 1 receptor) [µM]	SMILES	Ki [1] [µM]	hERG at 10 micromolar (% blocking of the hERG channel) (hERG channel) [%]	LUSB (longest uninterrupted sleep bout) (male Wistar rats; dose 10 mg/kg) [min]	NREM (male Wistar rats; dose 10 mg/kg) [min]	LUSB (longest uninterrupted sleep bout) (male Wistar rats; dose 3 mg/kg) [min]
–	–	–	–	–	–	–	–	C[N+]1(C)CCC(OC(=O)C(c2ccccc2)c2ccccc2)CC1 [4-DAMP methiodide]	0.00027	–	–	–	–
> 10	1.13	0.041	> 10	> 10	> 10	> 10	> 10	O=C(O)CCN1CCN(C2=Nc3ccccc3Oc3ccccc32)CC1 [Compound 1]	–	0.70	13.2 ± 3.3	22 ± 6	–
> 10	6.24	0.0542	> 10	> 10	> 10	> 10	3.27	O=C(O)CCCN1CCN(C2=Nc3ccccc3Oc3ccccc32)CC1 [Compound 2]	–	2.60	7.2 ± 2.0	38 ± 6	3.8 ± 2.2
–	–	–	–	–	–	–	–	O=C(O)CCN1CCN(C2=Nc3ccccc3Sc3ccccc32)CC1 [Compound 3]	–	0.80	5 ± 2.0	43 ± 6	6 ± 1.9
